One assay concerns RSV strain A2. Description: Antiviral detection test against RSV strain A2 based on ELISA method (Hep-2 cells). In kind it is cell-based, Respiratory Syncytial Virus. The following applies: RSV A2 virus strain, Hep-2 cells, ELISA OD450. As to the method:
Test Example 1: Antiviral detection test of small molecules against RSV strain A2 based on ELISA method
• Source of cell line: Nanjing Kebai Biotechnology Co., Ltd. • Cell type: human laryngeal carcinoma epithelial cells Hep-2
• 96-well culture plate (Cat.No. 3610, Corning Costar); • Fetal bovine serum (Cat.No. 10099-141, GIBCO); • DMEM medium (Cat.No. 11995500BT, GIBCO); • Envision 2104 microplate reader.
• 1. Day 1: The Hep-2 cells were seeded into a 96-well plate at a density of 1×10^4 cells/well; • 2. Day 2: • A. Compound dilution: The compound in the first well was diluted to 9 µM, and 3-fold gradient dilution was performed, with a total of 10 gradients; • B. The Hep-2 cell plate prepared on Day 1 was taken out from the incubator, the supernatant was discarded, and 100 PFU/well/50 µL of the RSV A2 virus was added to each well. The plate was stood at 37°C in a 5% CO2 incubator for 2 hours, the supernatant was aspirated and discarded, and then 100 µL of the gradient-diluted compound or DMEM maintenance medium containing 2% FBS was added to each well; • 3. Day 5: • A. Add fixative: The gradient-diluted compound or medium was discarded from the wells, and 100 µL/well of fixative (4% paraformaldehyde) was added. The plate was stood at room temperature for 10 minutes, and then was washed once with 250 µL PBS; • B. 100 µL/well of a blocking solution was added, and the plate was incubated at 37°C in a 5% CO2 incubator for 30 minutes; • C. After incubation, the detection antibody (Anti RSV Fpro) was added at 0.3 µg/50 µL/well (6 µg/mL), and the plate was incubated at 37°C in a 5% CO2 incubator for 1 hour; • D. After incubation, the HRP secondary antibody was added (diluted 10,000-fold with 0.2% BSA), and the plate was incubated at 37°C in a 5% CO2 incubator for 1 hour; • E. After incubation, the wells were washed for 4 times with PBST, 250 µL/well, each washing was allowed to stand for 5 minutes, and the liquid in the wells was shaken off after completion of the washing; • F. 100 µL/well of a development solution was added, the plate was incubated at room temperature in the dark for 20 minutes, and 50 µL/well of a reaction termination solution was added. The plate was tapped gently to mix the solutions, and the absorbance at 450 nm was measured using the microplate reader. • 4. Data analysis • Inhibition rate of the compound against the virus = 100% - (SC - CC)/(VC - CC) × 100% • SC: OD450 value of the sample (cells + test compound + virus) • CC: OD450 value of the normal growing cell control (cells) • VC: OD450 value of the virus growth control (cells + virus)
The software Graphpad Prism 6 was used, and the calculation formula XY-analysis/Nonlinear regression (curve fit)/Dose response-Inhibition/log (inhibition) vs. response-Variable slope (four parameters) was adopted to fit the IC50 curve and calculate the IC50 value.
Background: ELISA stands for enzyme-linked immunosorbent assay.
With `Cc1ccc2nc(N3CCS(=O)(=NCC4CCO4)c4ccccc4C3)nc(N3CC[C@@H](N)C3)c2c1` (some centres unmarked) [Example 4-39], the concentration for half-maximal inhibition (IC50) is below 10 nM.
In the case of `Cc1ccc2nc(N3CCS(=O)(=NC(N)=O)c4ccccc4C3)nc(NCC3(N)COC3)c2c1` (centres unmarked) [Example 2-16, 1-(4-(4-(((3-aminooxetan-3-yl)methyl)amino)-6-methylquinazolin-2-yl)-1-oxido-2,3,4,5-tetrahydro-1λ^4-benzo[f][1,4]thiazepin-1-ylidene)urea], the half-maximal inhibitory concentration (IC50) is above 10 nM.

Staying with this assay, now noted: human respiratory syncytial virus; RSV A2 virus strain, Hep-2 cells, ELISA OD450.
Regarding `Cc1ccc2nc(N3CCS(=O)(=NCCS(C)(=O)=O)c4ccccc4C3)nc(N3CC[C@H](N)C3)c2c1` (some centres unmarked) [Example 4-65], the concentration for half-maximal inhibition (IC50) is below 10 nM.
With `CN=S1(=O)CCN(c2nc(NCC3(N)COC3)c3cc(C)ccc3n2)Cc2ccccc21` (centres unmarked) [Example 2-14, 4-(4-(((3-aminooxetan-3-yl)methyl)amino)-6-methylquinazolin-2-yl)-1-(methylimino)-2,3,4,5-tetrahydro-1H-1λ^4-benzo[f][1,4]thiazepine-1-oxide], the half-maximal inhibitory concentration (IC50) is below 10 nM.
Take `Cc1ccc2nc(N3CCS(=O)(=NC(=O)C4(F)CC4)c4ccccc4C3)nc(NCC3(N)COC3)c2c1` (centres unmarked) [Example 2-32, N-(4-(4-(((3-aminooxetan-3-yl)methyl)amino)-6-methylquinazolin-2-yl)-1-oxido-2,3,4,5-tetrahydro-1λ^4-benzo[f][1,4]thiazepin-1-ylidene)-1-fluorocyclopropane-1-carboxamide]: the concentration for half-maximal inhibition (IC50) is below 10 nM.
Regarding `Cc1ccc2nc(N3CCS(=N)(=O)c4ccccc4C3)nc(NCC3(N)COC3)c2c1` (centres unmarked) [Example 2-23, 4-(4-(((3-aminooxetan-3-yl)methyl)amino)-6-methylquinazolin-2-yl)-1-imino-2,3,4,5-tetrahydro-1H-1λ^4-benzo[f][1,4]thiazepine-1-oxide], the 50% inhibitory concentration (IC50) is below 10 nM.
With `Cc1ccc2nc(N3CCS(=O)(=NC4CC4)c4ccccc4C3)nc(N3CC(N)(CO)C3)c2c1` (centres unmarked) [Example 4-32, 4-(4-(3-amino-3-(hydroxymethyl)azetidin-1-yl)-6-methylquinazolin-2-yl)-1-(cyclopropylimino)-2,3,4,5-tetrahydro-benzo[f][1,4]thiazepine-1-oxide], the concentration for half-maximal inhibition (IC50) was below 10 nM.
For the compound `Cc1ccc2nc(N3CCS(=O)(=NCCCC#N)c4ccccc4C3)nc(N3CC[C@@H](N)C3)c2c1` (some centres unmarked) [Example 4-47], the IC50 was below 10 nM.
The same measure, in the same setting: for `Cc1ccc2nc(N3CCS(=O)(=NC4CC4)c4ccccc4C3)nc(N[C@H]3C[C@@H](N)C3)c2c1` (stereo partly drawn) [Example 4-13, 4-(4-(((1R,3S)-3-aminocyclobutyl)amino)-6-methylquinazolin-2-yl)-1-(cyclopropylimino)-2,3,4,5-tetrahydro-benzo[f][1,4]thiazepine-1-oxide] the value was below 10 nM; for `CCN=S1(=O)CCN(c2nc(NCC3(N)COC3)c3cc(C)ccc3n2)Cc2ccccc21` (centres unmarked) [Example 2-43, 4-(4-(((3-aminooxetan-3-yl)methyl)amino)-6-methylquinazolin-2-yl)-1-(ethylimino)-2,3,4,5-tetrahydro-1H-1λ^4-benzo[f][1,4]thiazepine-1-oxide], below 10 nM.
Compound `Cc1ccc2nc(N3CCS(=O)(=NCC(F)F)c4ccccc4C3)nc(NCC3(N)COC3)c2c1` (centres unmarked) [Example 4-6, 4-(4-(((3-aminooxetan-3-yl)methyl)amino)-6-methylquinazolin-2-yl)-1-((2,2-difluoroethyl)imino)-2,3,4,5-tetrahydrobenzo[f][1,4]thiazepine-1-oxide] came in with an IC50 below 10 nM.
For the compound `Cc1ccc2nc(N3CCS(=O)(=NCCCO)c4ccccc4C3)nc(N3CC[C@H](N)C3)c2c1` (some centres unmarked) [Example 4-64], the IC50 is below 10 nM.
Still for that read-out and setting: under `CNC(=O)N=S1(=O)CCN(c2nc(NCC3(N)COC3)c3cc(C)ccc3n2)Cc2ccccc21` (centres unmarked) [Example 2-37, 1-(4-(4-(((3-aminooxetan-3-yl)methyl)amino)-6-methylquinazolin-2-yl)-1-oxido-2,3,4,5-tetrahydro-1λ^4-benzo[f][1,4]thiazepin-1-ylidene)-3-methylurea] stands below 10 nM.
On the same count and under the same terms, under `NC1(CNc2nc(N3CCS(=O)(=NC4CC4)c4ccccc4C3)nc3ccc(C(F)F)cc23)COC1` (centres unmarked) [Example 2-46, 4-(4-(((3-aminooxetan-3-yl)methyl)amino)-6-(difluoromethyl)quinazolin-2-yl)-1-(cyclopropylimino)-2,3,4,5-tetrahydro-1H-1λ^4-benzo[f][1,4]thiazepine-1-oxide] stands below 10 nM; under `COCCCN=S1(=O)CCN(c2nc(N3CC[C@H](N)C3)c3cc(C)ccc3n2)Cc2ccccc21` (some centres unmarked) [Example 4-71], below 10 nM; under `CC(=O)N=S1(=O)CCN(c2nc(NCC3(N)COC3)c3cc(C)ccc3n2)Cc2ccccc21` (centres unmarked) [Example 2-31, N-(4-(4-(((3-aminooxetan-3-yl)methyl)amino)-6-methylquinazolin-2-yl)-1-oxido-2,3,4,5-tetrahydro-1λ^4-benzo[f][1,4]thiazepin-1-ylidene)acetamide], below 10 nM.
As for `Cc1ccc2nc(N3CCS(=O)(=NCC4CCCO4)c4ccccc4C3)nc(N3CC[C@H](N)C3)c2c1` (some centres unmarked) [Example 4-70], the IC50 is below 10 nM.
The same measure, in the same setting: under `Cc1ccc2nc(N3CCS(=O)(=NCCF)c4ccccc4C3)nc(NCC3(N)COC3)c2c1` (centres unmarked) [Example 4-5, 4-(4-(((3-aminooxetan-3-yl)methyl)amino)-6-methylquinazolin-2-yl)-1-((2-fluoroethyl)imino)-2,3,4,5-tetrahydrobenzo[f][1,4]thiazepine-1-oxide] stands below 10 nM; under `COCCCN=S1(=O)CCN(c2nc(N3CC[C@@H](N)C3)c3cc(C)ccc3n2)Cc2ccccc21` (some centres unmarked) [Example 4-73], below 10 nM.
Still for that read-out and setting: for `N[C@@H]1CCN(c2nc(N3CCS(=O)(=NC4CC4)c4ccccc4C3)nc3ccc(C(F)F)cc23)C1` (some centres unmarked) [Example 4-28] the value was below 10 nM; for `Cc1ccc2nc(N3CCS(=O)(=NCCC(C)(C)O)c4ccccc4C3)nc(N3CC[C@@H](N)C3)c2c1` (some centres unmarked) [Example 4-56], below 10 nM; for `COC(=O)C1(CN)CN(c2nc(N3CCS(=O)(=NC4CC4)c4ccccc4C3)nc3ccc(C)cc23)C1` (centres unmarked) [Example 4-57, methyl 3-(aminomethyl)-1-(2-(1-(cyclopropylimino)-1-oxido-1,2,3,5-tetrahydro-benzo[f][1,4]thiazepin-4-yl)-6-methylquinazolin-4-yl)azetidine-3-carboxylate], below 10 nM.
The compound `CC(O)(CCN=S1(=O)CCN(c2nc(N3CC[C@H](N)C3)c3cc(C(F)F)ccc3n2)Cc2ccccc21)C(F)(F)F` (stereo partly drawn) [Example 4-63, 4-(4-((S)-3-aminopyrrolidin-1-yl)-6-(difluoromethyl)quinazolin-2-yl)-1-((4,4,4-trifluoro-3-hydroxy-3-methylbutyl)imino)-2,3,4,5-tetrahydro-benzo[f] [1,4]thiazepine-1-oxide] gave an IC50 below 10 nM.
In turn, `Cc1ccc2nc(N3CCS(=O)(=NC4CC4)c4ccccc4C3)nc(N[C@@H]3CNC[C@H]3O)c2c1` (stereo partly drawn) [Example 4-10, 1-(cyclopropylimino)-4-(4-(((3R,4R)-4-hydroxypyrrolidin-3-yl)amino)-6-methylquinazolin-2-yl)-2,3,4,5-tetrahydro-benzo[f][1,4]thiazepine-1-oxide] registered an IC50 below 10 nM.
On the same count and under the same terms, under `Cc1ccc2nc(N3CCS(=O)(=NC4CC4)c4ccccc4C3)nc(NCC3(N)COC3)c2c1` (centres unmarked) [Example 2-26, 4-(4-(((3-aminooxetan-3-yl)methyl)amino)-6-methylquinazolin-2-yl)-1-(cyclopropylimino)-2,3,4,5-tetrahydro-1H-1λ^4-benzo[f][1,4]thiazepine-1-oxide] stands below 10 nM; under `Cc1ccc2nc(N3CCS(=O)(=NCC4CCOC4)c4ccccc4C3)nc(N3CC[C@H](N)C3)c2c1` (some centres unmarked) [Example 4-72], below 10 nM.
The compound `Cc1ccc2nc(N3CCS(=O)(=Nc4cnn(C)c4)c4ccccc4C3)nc(NCC3(N)COC3)c2c1` (centres unmarked) [Example 2-38, 4-(4-(((3-aminooxetan-3-yl)methyl)amino)-6-methylquinazolin-2-yl)-1-((1-methyl-1H-pyrazol-4-yl)imino)-2,3,4,5-tetrahydro-1H-1λ^4-benzo[f][1,4]thiazepine-1-oxide] gave an IC50 above 10 nM.

Staying with this assay, now noted: ratio of IC50 values against RSV A2 virus strain; control compound AK0529.
For the compound `NC1(CNc2nc(N3CCS(=O)(=NC4CC4)c4ccccc4C3)nc3ccc(C(F)F)cc23)COC1` (centres unmarked) [Example 2-46, 4-(4-(((3-aminooxetan-3-yl)methyl)amino)-6-(difluoromethyl)quinazolin-2-yl)-1-(cyclopropylimino)-2,3,4,5-tetrahydro-1H-1λ^4-benzo[f][1,4]thiazepine-1-oxide], the “AK0529 IC50 / IC50 of the compounds of the present invention” value is “ratio ≥20”.
For `COC(=O)C1(CN)CN(c2nc(N3CCS(=O)(=NC4CC4)c4ccccc4C3)nc3ccc(C)cc23)C1` (centres unmarked) [Example 4-57, methyl 3-(aminomethyl)-1-(2-(1-(cyclopropylimino)-1-oxido-1,2,3,5-tetrahydro-benzo[f][1,4]thiazepin-4-yl)-6-methylquinazolin-4-yl)azetidine-3-carboxylate], the “AK0529 IC50 / IC50 of the compounds of the present invention” value is listed as “ratio ≥20”.

What is called IC50 is the point on the concentration scale where inhibition reaches its midpoint.

For the origin of these results see patent EP4745139A1, “COMPOUND FOR TREATING AND PREVENTING RESPIRATORY SYNCYTIAL VIRUS INFECTION DISEASES” (CSPC Zhongqi Pharmaceutical Technology (Shijiazhuang) Co., …, priority 2023, dated 2025).
